We go through six compounds from US20230103444A1 (The Regents of the University of Colorado, a Body Corporate, priority 2020, published 2023).

Structures are written as SMILES. Where two headings read alike, the source gives them in different places.

Series [1] deals with T1, cat-CHD1L ATPase (Homo sapiens, UniProt Q86WJ1).
T1 construct: inferred from Ni-NTA / imidazole purification; made in house; host or cells: E. coli Rosetta 2 (DE3) pLysS; constructs were a gift from Helena Berglund, Karolinska Institute
T1 sequence (Q86WJ1 16-611 limits assumed): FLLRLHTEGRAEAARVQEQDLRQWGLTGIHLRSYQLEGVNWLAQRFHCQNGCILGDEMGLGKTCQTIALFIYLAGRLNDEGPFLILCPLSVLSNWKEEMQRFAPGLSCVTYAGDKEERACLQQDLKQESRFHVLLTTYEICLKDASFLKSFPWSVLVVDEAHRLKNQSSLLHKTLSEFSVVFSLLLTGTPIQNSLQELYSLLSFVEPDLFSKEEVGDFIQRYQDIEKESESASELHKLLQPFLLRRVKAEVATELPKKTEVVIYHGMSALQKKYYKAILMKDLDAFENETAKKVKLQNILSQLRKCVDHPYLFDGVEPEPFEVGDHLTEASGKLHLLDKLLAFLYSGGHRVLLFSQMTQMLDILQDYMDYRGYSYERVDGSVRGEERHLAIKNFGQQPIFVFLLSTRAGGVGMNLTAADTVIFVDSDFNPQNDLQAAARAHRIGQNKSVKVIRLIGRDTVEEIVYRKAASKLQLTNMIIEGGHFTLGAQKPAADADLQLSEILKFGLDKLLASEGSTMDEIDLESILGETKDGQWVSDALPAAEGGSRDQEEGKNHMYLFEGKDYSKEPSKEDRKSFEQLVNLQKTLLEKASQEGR
Put plainly: CHD1L ATPase assay with recombinant catalytic domain (cat-CHD1L). The following applies: for inhibition at 20 µM: confirmed HTS hits, HTS at 20 μM, read-out: inhibition against cat-CHD1L ATPase. The class given is biochemical. The procedure: All reactions were carried out using low volume non-binding surface 384-well plates (Corning Inc., Corning N.Y.). cat-CHD1L or fl-CHD1L (100 nM) and 200 nM c-Myc DNA or mononucelosome (Active Motif, Carlsbad, Calif.) were added to a buffer containing 50 mM Tris pH 7.5, 50 mM NaCl, 1 mM DTT, 5% glycerol, and the reaction was initiated by the addition of 10 μM ATP (New England Biolabs, Ipswich, Mass.) to a total volume of 10 μL and incubated at 37° C. for 1 h. ATPase activity was assayed by adding 500 nM of Phosphate Sensor (Life Technologies, Carlsbad, Calif.), containing labeled phosphate-binding protein, specifically labeled with the fluorophore MDCC, and measuring excitation (430 nm) and emission (450 nm) immediately on an EnVision® plate reader (PerkinElmer, Hopkinton, Mass.). An inorganic phosphate standard curve was used to convert the fluorescence to [Pi], and enzyme kinetics were determined using Prism8 (GraphPad Software, San Diego, Calif.).
Assay composition was the same as described above using cat-CHD1L, except that the reaction mixture volume was modified to accommodate addition of drug or DMSO. Using a Janus® liquid handler (PerkinElmer, Hopkinton, Mass.), a selected amount of compounds dissolved in 100% DMSO were mixed with 50 mM Tris pH 7.5, 50 mM NaCl, 1 mM DTT, 5% glycerol buffer to 200 μM in 10% DMSO. […] The negative control used was 1% DMSO and 10 mM EDTA was used as a positive control. Reactions were initiated with the addition of 10 μM ATP and incubated at 37° C. for 1 h. ATPase activity was measured by fluorescence by adding 500 nM Phosphate Sensor. cat-CHD1L was screened against a 20,000-compound diversity set from Life Chemicals (Woodbridge, Conn.) and a Kinase Inhibitor library from Selleck Chemicals (Houston, Tex.).
CHD1L Enzyme ATPase Assay. […] All reactions were carried out using low volume nonbinding surface 384-well plates (Corning Inc., Corning, N.Y.). […] The reaction was initiated by the addition of 10 μmol/L ATP (New England Biolabs, Ipswich, Mass.) to a total volume of 10 μL and incubated at 37° C. for 1 hour. ATPase activity was measured by adding 500 nmol/L of Phosphate Sensor (ThermoFisher, Waltham, Mass.) measuring excitation (430 nm) and emission (450 nm) immediately on an Envision plate reader (PerkinElmer, Waltham, Mass.). Background signal was determined by using all assay components excluding the enzyme.

Series [2] relates to vimentin promoter activity. Put plainly: VimPro-GFP reporter 3D high-content imaging in tumor organoids. The following applies: 72 h. The class given is cell-based, human. The procedure:
(§1) After validating hits 5-7 against CHD1L mediated TCF transcription, the ability of these compounds to reverse EMT and other malignant properties in CRC were evaluated. E-cadherin and vimentin are putative biomarkers for the epithelial and mesenchymal phenotypes, respectively. [McDonald et al., 2015] Loss of E-cadherin and gain of vimentin are also clinical biomarkers of poor prognosis. [Yun et al., 2014; Richardson et al., 2012; Dhanasekaran et al., 2001; Kashiwagi et al., 2010; Toiyama et al., 2013] Accordingly, lentiviral promoter driven reporters for E-cadherin (pCDH1-EcadPro-RFP) and vimentin (pCDH1-VimPro-GFP) were developed, which faithfully report E-cadherin and vimentin protein expression, respectively. [Zhou et al., 2016; Abraham et al., 2019] SW620 cells transduced with either EcadPro-RFP or VimPro-GFP were cultured as tumor organoids for 72 h, reaching a diameter of 600 μm. Tumor organoids were treated with compounds 5-7 for an additional 72 h to determine the effective concentration 50 percent (EC50) for modulating promoter activity. Changes in promoter expression was quantified using a 3D confocal image […] based high-content analysis algorithm (FIG. 2A-2B). [Zhou et al., 2016; Abraham et al., 2019]
(§2) Stable VimPro-GFP or EcadPro-RFP SW620 reporter cells were generated using pCDH imPro-GFP-EF1-puro virus or pCDH-EcadPro-mCherry-EF1-puro virus as previously reported. [Zhou et al., 2016; Abraham et al., 2019] The stable fluorescently labeled reporter cells were used to generate tumor organoids as described herein. Tumor organoids were treated with CHD1L inhibitors at 10 μM for an additional 72 h. Following treatment, tumor organoids were stained with 16 μM of Hoechst 33342 for 1 h (nuclei stain). Images were taken with a 5× air objective. Z-stacks were set at 26.5 μm apart for a total of 15 optical slices. Imaging and high-content analysis were performed using an Opera Phenix™ and Harmony® software (PerkinElmer, Hopkinton, Mass.). Nuclei were identified within each layer and cells were found with either GFP or mCherry channel. The fluorescence intensities of each channel were calculated and thresholds were set based on the background intensities. Percentages of GFP or mCherry RFP positive cells were calculated and normalized to the DMSO treated group.
3D High-Content Imaging and Analysis of EMT Dual-Reporter Activity. Tumor organoids were imaged using the Opera Phenix high-content screening system (PerkinElmer) in confocal mode utilizing a 10× air objective (NA 0.3). […] Organoids were also imaged in Brightfield to segment and perform high-content analysis of dual reporter specific fluorescence intensity. […] Both fluorescent signals were quantified and normalized as previously described. […]

The test system of series [3] is E-cadherin promoter activity. Put plainly: EcadPro-RFP reporter 3D high-content imaging in tumor organoids. The class given is cell-based. The following applies: 72 h. The procedure:
as §1
CHD1L has been reported to confer anti-apoptotic activity by inhibiting activation of caspase-dependent apoptosis. [Li et al., 2013; Sun et al., 2016] Additionally, reversal or inhibition of EMT is known to restore apoptotic activity of cancer cells. [Lu et al., 2014] To determine if CHD1L inhibitors reverse EMT prior to induction of cell death, E-cadherin expression by EcadPro-RFP reporter activity was monitored and cytotoxicity was measured using the CellTox™ Green assay. Cells were treated with CHD1L inhibitors for 72 h and imaged every 2 h.
as §2
3D High-Content Imaging and Analysis of EMT Dual-Reporter Activity. Tumor organoids were imaged using the Opera Phenix high-content screening system (PerkinElmer) in confocal mode utilizing a 10× air objective (NA 0.3). The following excitation and emission (Ex/Em) wavelengths were employed: RFP (561/570-630) and GFP (488/500-550). Organoids were also imaged in Brightfield to segment and perform high-content analysis of dual reporter specific fluorescence intensity. RFP fluorescent signal correlates with E-Cadherin promoter activity, while GFP fluorescent signal is correlates with vimentin promoter activity. Both fluorescent signals were quantified and normalized as previously described. (Esquer, et al., 2021)

The subject of series [4] is HCT116 tumor organoids. Nature of the series: Tumor organoid cytotoxicity (CellTiter-Glo 3D). The class given is cell-based, human. The following applies: Homo sapiens. The procedure: Cell based cytotoxicity dose response and combination studies. […] Plates were then incubated for 3 days before treatment.
Cell Line Tumor Organoid Culture.
Tumor Organoid Cytotoxicity.
In general terms: ATP-based viability assays read luminescence as a measure of living cells.

Series [5] is described as follows: Human microsomal stability. The class given is in vitro ADME. The following applies: human microsomes, Table 6, read-out: Microsomal stability Human t1/2.
Series [6] in a line: Mouse liver microsome stability. The following applies: CD-1, mouse, liver microsomes, pH 7.4, Microsomal stability Mouse t1/2 (min), Table 6.
Protocol: Microsome stability. CD-1 mouse microsomes were commercially purchased and the reactions were performed as previously described. […] The master mix was pre-incubated at 37° C. for 5 min, then 1 mM NADPH was added to start the microsomal activity reaction and maintained at 37° C. throughout the time course. Reactions were stopped at 0, 5, 15, 30, 45, and 60 min by adding 200 μL acetonitrile and analyzed by mass spectrometry. The appropriate microsome controls were also performed in the same reaction conditions.
Series [7] relates to SW620 tumor organoids. Put plainly: Tumor organoid cytotoxicity (CellTiter-Glo 3D). The following applies: Homo sapiens.
Series [8] concerns TCF-transcription. Nature of the series: TOPflash TCF-transcriptional reporter assay. The class given is cell-based, human. The following applies: TOPflash reporter in CRC cell lines (SW620, HCT116, DLD1CHD1L-OE), 24 h. As for the experimental part:
TOPflash assay (Millipore, Billerica, Mass.) was used to evaluate TCF transcriptional activity in CRC cells. A total of 20,000 cells per well were plated into 96-well white plates and transfected with TransIT®-LT1 transfection reagent (Mirus, Madison, Wis.). Cells were incubated with transfection mix for 24 h. Next, cells were washed with phosphate-buffered solution (PBS) and a 1:1 ratio of PBS:ONE-Glo™ luciferase reagent Promega (Madison, Wis.) was added and the luminescence was detected within 10 min. A duplicate experiment was conducted to measure cell viability using CellTiter-Glo® Luminescent Cell Viability Assay (Promega, Madison, Wis.), which was used to normalize TOPflash luminescence to obtain the fold change in TCF activity. Experiments were replicated 2× (n=3 for each experiment).
TCF-transcriptional Reporter Assay. […] Afterwards, cells from the white solid bottom plate were carefully washed with PBS and a 1:1 ratio of PBS:One-Glo Luciferase Assay System (Promega) was added, incubated for 10 min, and luminescence was quantified on Envision plate reader (PerkinElmer) for TCF-activity. As a control, cells from the clear plate were lysed with Mammalian Cell Lysis Buffer (Promega) and the total protein from each well was quantified with BCA assay (ThermoFisher).
On the technique in general: In a reporter assay the amount or activity of a reporter protein is the signal.

[9] abbreviates: units given with the values (nM, μM), read-out: activity in dose response studies against cat-CHD1L ATPase (IC50, FIG. 1A).
Where [10] appears, read: Table 6, read-out: cat-CHD1L inhibition IC50.
[11] abbreviates: HCT-116, 72 h, Table 6, read-out: 3 D Cytotoxicity 72 hr IC50 (μM) HCT116.
[12] abbreviates: SW-620, 72 h, read-out: 3 D Cytotoxicity 72 hr IC50 (μM) SW620.
Setting [13] is: SW-620, read-out: IC50 of cytotoxicity in SW620 cells.
Setting [14] is: SW620 or HCT116 tumor organoids.

A word on the inhibition: it is how much of the control response was suppressed. In general, IC50 refers to the concentration that inhibits the measured activity by half. Usually EC50 stands for the midpoint of the concentration-response curve. Regarding `Cc1ccc(Nc2nc(N3CCN(CCO)CC3)nc3nccnc23)cc1Cl` [Compound 7], the inhibition at 20 µM in series [1] was above 50%. For the same compound, the IC50 in series [1] (setting [9]) was in the range of 900 to 5000 nM. Further, the EC50 in series [2] (Homo sapiens, SW-620, read-out: EC50 downregulation of vimentin promoter activity, SW620 tumor organoids) was determined as 12.8 ± 1.3 µM; in series [3] (Homo sapiens, SW-620, read-out: EC50 upregulation of E-cadherin promoter activity, SW620 tumor organoids), 28 ± 0.003 µM.
In the case of `Cc1cc(NCc2ccc(NC(=O)Cc3cc(Br)cs3)cc2)nc(N2CCCC2)n1` [Compound 6.33], the IC50 was 300 nM in series [1] (setting [10]), 11.6 µM in series [4] (setting [11]), 4 µM in series [7] (setting [12]) and below 10 µM in series [7] (setting [13]). In addition, the “CHD1L enzyme inhibition, in words” value in series [1] (recombinant cat-CHD1L) is “good enzyme inhibition”. The half-life in series [5] came to 0.637 h. In series [6], this compound came in with a half-life at 10 μM of 1.27 h.
With `Cc1cc(Nc2ccc(NC(=O)Cc3c[nH]c4ccccc34)cc2)nc(N2CCCC2)n1` [Compound 6.5, 2-(1H-indol-3-yl)-N-(4-((6-methyl-2-(pyrrolidin-1-yl)pyrimidin-4-yl)amino)phenyl)acetamide], in series [2] (setting [14]), the “downregulation of vimentin promoter activity (VimPro-GFP), in words” value is “marked down-regulation of the VimPro-GFP”. In addition, the “upregulation of E-cadherin promoter activity (EcadPro-RFP), in words” value in series [3] (setting [14]) is given as “upregulation of EcadPro-RFP”. The IC50 in series [4] (setting [11]) was 2.2 µM; in series [4] (HCT-116, single agent, Table 4A, read-out: Tumor Organoid Cytotoxicity IC50 (μM) HCT116), 2.2 µM; in series [7] (setting [13]) it was below 10 µM. In series [6], the half-life at 10 μM was 1.17 h.
Consider `CCc1nnc(NS(=O)(=O)c2ccc(NC(=O)c3nc4ccccc4s3)cc2)s1` [Compound 4], for which the inhibition at 20 µM in series [1] is above 50%. Also, the IC50 in series [1] (setting [9]) lay in the range of 900 to 5000 nM. Also, in series [8], the “inhibition of TCF-transcription, in words” value is “modest activity in cells with no dose dependent inhibition”.
Consider `Cc1cc(N2CCCC2)nc(NCc2ccc(NC(=O)Cc3cc(Br)cs3)cc2)n1` [Compound 6.41], for which the IC50 in series [1] (setting [10]) worked out at 500 nM; in series [4] (setting [11]), 21.3 µM; in series [7] (setting [12]) it was 13.5 µM. The half-life in series [5] turned out to be 2.86 h. Besides, the half-life at 10 μM in series [6] came to 1.03 h.
For `Cc1cc(Nc2ccc(NC(=O)Cc3ccco3)cc2)nc(N2CCCC2)n1` [Compound 6.39], in that order: above 20000 nM, 10.8 µM, 14.2 µM, 1.48 h and 1.17 h.
